biological target: T1, Sphingomyelin phosphodiesterase (Homo sapiens) (UniProt P17405); assay: Compound was evaluated as a substrate for human placental acidic sphingomyelinase utilizing the usual substrate C14-labeled sphingomyelin.
T1 sequence (whole entry): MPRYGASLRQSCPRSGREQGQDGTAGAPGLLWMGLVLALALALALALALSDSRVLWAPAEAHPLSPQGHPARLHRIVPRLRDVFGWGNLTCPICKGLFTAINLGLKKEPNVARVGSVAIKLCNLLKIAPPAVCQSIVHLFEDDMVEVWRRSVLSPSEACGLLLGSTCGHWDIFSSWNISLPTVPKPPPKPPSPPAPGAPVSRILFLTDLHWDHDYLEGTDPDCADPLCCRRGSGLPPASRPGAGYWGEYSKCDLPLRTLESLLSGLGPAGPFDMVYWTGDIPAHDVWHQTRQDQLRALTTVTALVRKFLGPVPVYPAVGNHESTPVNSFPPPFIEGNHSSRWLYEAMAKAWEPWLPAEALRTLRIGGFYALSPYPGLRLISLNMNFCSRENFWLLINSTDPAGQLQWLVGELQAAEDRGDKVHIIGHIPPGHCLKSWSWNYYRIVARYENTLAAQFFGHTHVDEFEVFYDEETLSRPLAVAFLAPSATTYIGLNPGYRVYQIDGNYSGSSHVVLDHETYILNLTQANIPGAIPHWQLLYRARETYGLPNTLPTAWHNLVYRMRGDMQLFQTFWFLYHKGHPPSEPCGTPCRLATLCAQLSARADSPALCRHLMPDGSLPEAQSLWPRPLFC

| Cleavage rate [nM U-1 hr-1] | SMILES |
| --- | --- |
| 0.29 | CCCCCCCCCCCCC/C=C/[C@@H](O)[C@H](COP(=O)(O)OCCCCCCNc1ccc([N+](=O)[O-])c2nonc12)NC(=O)CCCCCNC(=O)CCCC[C@@H]1SC[C@@H]2NC(=O)N[C@@H]21 |
| 1.72 | CCCCCCCCCCCCC/C=C/[C@@H](O)[C@H](COP(=O)([O-])OCC[N+](C)(C)C)NC(=O)CCCCCCCCCCCCCCCCCCC |
| 1.32 | CCCCCCCCCCCCC/C=C/[C@@H](O)[C@H](COP(=O)(O)OCC[N+](C)(C)CCNS(=O)(=O)c1cccc2c(N(C)C)cccc12)NC(=O)CCCCCCCCCCCCCCCCCCC |
| 0.51 | CCCCCCCCCCCCC/C=C/[C@@H](O)[C@H](COP(=O)(O)OCCCCNS(=O)(=O)c1cccc2c(N(C)C)cccc12)NC(=O)CCCCCNC(=O)CCCC[C@@H]1SC[C@@H]2NC(=O)N[C@@H]21 |
